Data published in US12501902B2, “Compositions and methods relating to insecticides” (priority 2019, dated 2025).

System: Aedes aegypti mosquitoes
Format: in vivo
Conditions: for Synergism of NP by Cha Plu constituent: Table 2, 2 ug/female; for Synergism of the insecticide by Cha Plu (SR or words): Cha Plu at 4 μg/female; for LD50: Table 1, topical 0.2 μL, mortality at 24 hr, Cha Plu 4 μg/female where combined
Description: Aedes aegypti mosquitoes of the insecticide susceptible Orlando strain and the pyrethroid-resistant Puerto Rico strain were reared using standard protocols and provided by the United States Department of Agriculture—Center of Medical, Agricultural, and Veterinary Entomology (Gainesville, FL). Mosquitoes were aspirated from colony cages raised from pupae and anesthetized on ice. […] Ten mosquitoes were used per concentration and at least three different biological cohorts were used in the analysis. Knockdown (defined as inability to fly or maintain posture) was recorded at 1 hr or other time points post application (depending on the experiment), whereas mortality (defined as no movement—ataxia) was recorded at 24 hr. […] SAS 9.4 was used to calculate the LD50 values using a PROC PROBIT model with Abbott's correction to account for any control mortality.

SMILES	Synergism of NP by Cha Plu constituent	Synergism of the insecticide by Cha Plu (SR or words)	LD50 [ng/mg]	Synergism of NP (PBO applied at 2 μg/female) [fold]
C[C@@H]1O[C@@H](OC[C@H]2O[C@@H](Oc3c(-c4ccc(O)c(O)c4)oc4cc(O)cc(O)c4c3=O)[C@H](O)[C@@H](O)[C@@H]2O)[C@H](O)[C@H](O)[C@H]1O [rutin]	more than 3 fold	–	–	–
CNC(=N[N+](=O)[O-])NCc1cnc(Cl)s1 [Clothianidin, 1-(2-Chloro-1,3-thiazol-5-ylmethyl)-3-methyl-2-nitroguanidine]	–	strong synergist	4.5	–
CCCCOCCOCCOCc1cc2c(cc1CCC)OCO2 [PBO]	–	–	–	3.8
N#Cc1nn(-c2c(Cl)cc(C(F)(F)F)cc2Cl)c(N)c1[S+]([O-])C(F)(F)F (stereo not drawn) [Fipronil]	–	1.02	0.1	–
CCOCn1c(-c2ccc(Cl)cc2)c(C#N)c(Br)c1C(F)(F)F [Chlorfenapyr]	–	antagonism	9.9	–
O=c1cc(-c2ccc(O)cc2)oc2c([C@@H]3O[C@H](CO)[C@@H](O)[C@H](O)[C@H]3O)c(O)cc(O)c12 [Vitexin]	inactive	–	–	–
